# Source: US7105506B2, “Tetracyclic compounds as PDE5-inhibitors” (Lilly Icos LLC, priority 2001, dated 2006)
# Target: T1, recombinant human PDE5 (Homo sapiens, UniProt O76074)
# T1 construct: host or cells: Saccharomyces cerevisiae protease-deficient strain BJ2-54 (ATCC 74465)
# Assay: PDE5 inhibition (cGMP-PDE one-step assay)
# Assay type: biochemical
# Conditions: In vitro
# Description: The compounds of structural formula (I) were tested for an ability to inhibit PDE5. The ability of a compound to inhibit PDE5 activity is related to the IC50 value for the compound, i.e., the concentration of inhibitor required for 50% inhibition of enzyme activity. The IC50 value for compounds of structural formula (I) were determined using recombinant human PDE5.
# Phosphodiesterase activity of the preparations was determined as follows. PDE assays utilizing a charcoal separation technique were performed essentially as described in Loughney et al. (1996). In this assay, PDE activity converts [32P]cAMP or [32P]cGMP to the corresponding [32P]5′-AMP or [32P]5′-GMP in proportion to the amount of PDE activity present. The [32P]5′-AMP or [32P]5′-GMP then was quantitatively converted to free [32P]phosphate and unlabeled adenosine or guanosine by the action of snake venom 5′-nucleotidase. […] The assay was performed at 30° C. in a 100 μL reaction mixture containing (final concentrations) 40 mM iris HCl (pH 8.0), 1 μM ZnSO4, 5 mM MgCl2, and 0.1 mg/mL bovine serum albumin (BSA). PDE enzyme was present in quantities that yield <30% total hydrolysis of substrate (linear assay conditions). The assay was initiated by addition of substrate ([…] [^32P]cAMP or cGMP), and the mixture was incubated for 12 minutes. Seventy-five (75) […] of Crotalus atrox venom then was added, and the incubation was continued for 3 minutes (15 minutes total). The reaction was stopped by addition of 200 μL of activated charcoal (25 mg/mL suspension in 0.1 M NaH2PO4, pH 4). After centrifugation. (750×g for 3 minutes) to sediment the charcoal, a sample of the supernatant was taken for radioactivity determination in a scintillation counter and the PDE activity was calculated.
# cGMP-PDE activity of compounds of the present invention was measured using a one-step assay adapted from Wells et al., Biochim. Biophys. Acta, 384, 430 (1975). The reaction medium contained 50 mM Tris-HCl, pH 7.5, 5 mM magnesium acetate, 250 μg/ml 5′-Nucleotidase, 1 mM EGTA, and 0.15 μM 8-[H^3]-cGMP. Unless otherwise indicated, the enzyme used was a human recombinant PDE5 (ICOS Corp., Bothell, Wash.).
# Compounds of the invention were dissolved in DMSO finally present at 2% in the assay.
row,Structure (SMILES),IC50
1,"CN1CC(=O)N2[C@H](c3ccc4c(c3)OCO4)c3[nH]c4ccccc4c3[C@@H](c3ccccc3)[C@@H]2C1=O (racemic) [Example 3, (+−, 6,12a cis-12,12a-trans)-6-Benzo-(1,3)-dioxol-5-yl-methyl-12-phenyl-2,3,6,7,12,12a-hexahydro-pyrazino[1′,2′:1,6]pyrido[3,4-b]indole-1,4-dione]",47 nM
2,"C[C@@H]1c2c([nH]c3ccccc23)[C@@H](c2ccc3c(c2)OCO3)N2C(=O)CN(C)C(=O)[C@@H]12 (racemic) [Example 4a, (+−, cis, trans methyl)-6-Benzo[1,3]dioxol-5-yl-2,12-dimethyl-2,3,6,7,12,12a-hexahydropyrazino[1′,2′:1,6]pyrido[3,4-b]indole-1,3-dione]",4 nM
3,"C[C@@H]1c2c([nH]c3ccccc23)[C@H](c2ccc3c(c2)OCO3)N2C(=O)CN(C)C(=O)[C@@H]12 (racemic) [Example 4b, (+−, trans, trans methyl)-6-Benzo[1,3]dioxol-5-yl-2,12-dimethyl-2,3,6,7,12,12a-hexahydropyrazino[1′,2′:1,6]pyrido[3,4-b]indole-1,3-dione]",63 nM
4,"CN1CC(=O)N2[C@H](c3ccc4c(c3)OCO4)c3[nH]c4ccccc4c3C[C@]2(C)C1=O [Example 1, (6R,12aR)-6-Benzo[1,3]dioxol-5-yl-2,12a-dimethyl-2,3,6,7,12,12a-hexahydro-pyrazino-[1,2′:1,6]pyrido[3,4-b]indole-1,4-dione]",46 nM
5,"CN1CC(=O)N2[C@H](Cc3c([nH]c4ccccc34)[C@@]2(C)c2ccc3c(c2)OCO3)C1=O [Example 2a, (+−, Cis)-6-Benzo[1,3]dioxol-5-yl-2,6-dimethyl-2,3,6,7,12,12a-hexahydropyrazino-[1′,2′:1,6]pyrido[3,4-b]indole-1,4-dione]",685 nM
6,"CN1CC(=O)N2[C@H](Cc3c([nH]c4ccccc34)[C@]2(C)c2ccc3c(c2)OCO3)C1=O [Example 2b, (+−, trans)-6-Benzo[1,3]dioxol-5-yl-2,6-dimethyl-2,3,6,7,12,12a-hexahydropyrazino-[1′,2′:1,6]pyrido[3,4-b]indole-1,4-dione]",260 nM
7,"CN1CC(=O)N2[C@H](Cc3c([nH]c4ccccc34)[C@@]2(O)c2ccc3c(c2)OCO3)C1=O [Example 5, (6S,12aR)-6-Benzo[1,3]dioxol-5-yl-6-hydroxy-2-methyl-2,3,6,7,12,12a-hexahydropyrzino[1′,2′:1,6]pyrido[3,4-b]indole-1,4-dione]",142 nM
